In patent publication US8809377B2, “Deubiquitinase inhibitors and methods for use of the same” (The Regents of the University of Michigan, priority 2010, dated 2014):

Legend:
USP9X = experiment: Western / HA-UbVS labeling of USP9X in intact cells or lysates; type: cell-based; conditions: for Western Targets: USP9X: H929, WDT2, Z138 cell lines; for Usp9x activity (HA-UbVs labeling): CML cells treated for 4 hours
DUB activity = experiment: Western / HA-UbVS labeling of DUB activity in intact cells; type: cell-based; conditions: H929, WDT2, Z138 cell lines
Description: (§1) To assay for changes in activity of cellular deubiquitinase enzymes, leukemic cells were lysed in DUB buffer (50 mM Tris pH 7.4, 5 mM MgCl2, 150 mM NaCl) for 10 min at 4° C. The lysates were centrifuged at 20,000 RCF for 10 min and the supernatant was used for DUB labeling. Equal amounts of lysate were incubated with 500 ng of HA-UbVs for 1 hr at room temperature, followed by boiling in reducing sample buffer and resolving by SDS-PAGE. HA immunoblotting was used to detect DUB labeling.
as §1, with “Z138 and HEK293” for “leukemic”, “RFC” for “RCF”, “SDS-PAGE. After protein transfer to nitrocellulose membranes,” for “SDS-PAGE.”
(§2) Cancer Res, 2010. 70(22): p. […] Blood, 2011. 117(11): p. […] Biochem Pharmacol, 2011. 82(4): p. […] Blood, 2007. 109(8): p. 3470-8.

USP9X-UCH = target: T1, USP9X-UCH (Homo sapiens, UniProt Q93008); type: biochemical; conditions: isolated Usp9x-UCH domain enzyme preparation
T1 sequence (Q93008 1557-1956 limits assumed): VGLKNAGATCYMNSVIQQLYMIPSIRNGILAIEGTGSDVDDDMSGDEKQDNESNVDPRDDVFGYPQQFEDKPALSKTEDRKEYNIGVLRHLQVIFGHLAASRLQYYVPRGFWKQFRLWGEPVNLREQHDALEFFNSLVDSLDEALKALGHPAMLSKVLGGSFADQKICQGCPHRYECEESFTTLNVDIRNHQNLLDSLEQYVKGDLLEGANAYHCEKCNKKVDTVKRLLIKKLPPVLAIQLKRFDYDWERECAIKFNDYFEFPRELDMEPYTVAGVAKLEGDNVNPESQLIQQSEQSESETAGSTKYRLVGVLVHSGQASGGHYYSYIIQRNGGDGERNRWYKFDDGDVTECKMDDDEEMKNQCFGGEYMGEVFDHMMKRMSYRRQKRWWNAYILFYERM
Description: Purified DUBs at optimal concentrations (USPS; 20 nM, UCH-L1; 20 nM, UCH-L3; 5 nM, USP9x; immunoprecipitated from 500 μg Z138 cell lysate) were incubated in DUB buffer containing WP1130, vehicle alone (DMSO) or 1 mM NEM (positive control for DUB inhibition) in a 100 μL reaction volume for 30 min. The reaction was initiated by the addition of 500 nM Ub-AMC and the release of AMC-fluorescence was recorded at ex/em 380/480 using a spectrofluorometer.
as §2

Murine norovirus (MNV) = experiment: Murine norovirus plaque assay; type: cell-based; conditions: Norwalk virus, RAW264.7, MNV, murine macrophages (RAW264.7 or bone marrow derived), 5 μM, 30 min pre-treatment, 8-12 hr; read-out: Log inhibition by plaque assay
Description: Viral titers were determined by plaque assay.
Cells were treated with IFN-β as a positive anti-viral control.

Z138 = experiment: MTT cell growth, survival and apoptosis; conditions: Z138 cell line
Description: Cells were seeded in a 96-well plate at 5,000 cells per well in the presence of increasing concentration of WP1130 for 3 days in a CO2 incubator at 37° C. 20 μL of 5 g/L 3-(4,5-dimethylthiazol-2-yl)-2,5-diphenyltetrazolium bromide (MTT) solution was added to each well for 2 h at 37° C. The cells were then lysed in 10% SDS-buffer and absorbance at 570 nm relative to a reference wavelength of 630 nm was determined with a microplate reader. The concentrations resulting in 50% inhibition of cell growth (IC50 values) were calculated.
Annexin V and propidium iodide (PI) staining were used to measure apoptosis in WP1130 treated cells. Briefly, 10^5/mL cells were harvested from tissue culture plates and centrifuged at 2500 rpm for 5 min at room temperature. Media supernatant was removed and cells were washed once in PBS. Cells were then resuspended in 0.4 ml of cold Annexin V binding buffer and Annexin V-FITC and propidium iodide were added. Samples were incubated at room temperature for 10 min in the dark, filtered through nylon mesh, and analyzed by flow cytometry using a FacScan analyzer (Becton-Dickinson, San Jose, Calif.).
Compounds were screened for DUB inhibitory and apoptotic activity in a panel of CML, myeloma and Mantle cell lymphoma cell lines, and compared to WP1130.

cellular DUB activity = experiment: DUB activity of lysates from treated cells (Ub-AMC, Ub chain disassembly); type: cell-based; set-up: suppression of cellular DUB activity (ubiquitin-AMC): dose or concentration left out as unconfirmed
Description: Cells were lysed in ice cold DUB buffer containing 50 mM Tris-HCl, pH 7.5, 0.5% NP-40, 5 mM MgCl2, 150 mM NaCl and 1 mM phenylmethylsulfonylfluoride. Briefly, 5 μg of clarified lysate from untreated or treated cells was incubated with 500 nM Ub-AMC in a 100 μL reaction volume at 37° C. and the release of AMC fluorescence was recorded at ex/em 380/480 using a spectrofluorometer. USP9x was immunoprecipitated from 500 μg of cell lysate and incubated in DUB buffer containing NEM, WP1130 or DMSO in a 100 μL reaction volume for 30 min. The reaction was initiated by the addition of 500 nM Ub-AMC and the release of AMC-fluorescence was recorded.
In vitro disassembly of purified polyubiquitin chains (K-48/K-63 linked) was performed as previously described. Five μg of lysate from untreated or WP1130 treated cells were prepared in DUB buffer and incubated with K48- or K-63 linked chains (1 μg) for 10 min at 37° C. The extent of chain disassembly was assessed by ubiquitin immunoblotting.
Inhibition of cellular deubiquitinases could lead to an increase in high molecular weight ubiquitinated proteins in the absence of proteasome inhibition. […] To directly assess the impact of WP1130 on DUB activity in treated cells, cell lysates from control and treated cells were incubated with ubiquitin-AMC and fluorescence generated as a consequence of substrate cleavage was measured as an indicator of DUB activity.
The effect of WP1130 treatment on in vitro deubiquitination/disassembly of purified K48-linked or K63-linked polyubiquitin chains was evaluated. Lysates from WP1130 treated (2 hr) or untreated cells were incubated with 1 μg of unanchored polyubiquitin chains for 5, 10 and 15 min at 37° C.

CCCC(NC(=O)/C(C#N)=C/c1cccc(Br)n1)c1ccc(OC)cc1 (stereo not drawn) [Compound 8, (E)-3-(6-bromopyridin-2-yl)-2-cyano-N-(1-(4-methoxyphenyl)butyl)acrylamide]
Western Targets: USP9X (USP9X): USP9X and DUB activity: no effect
Western Targets: DUB activity (DUB activity): USP9X and DUB activity: no effect

CCCC(NC(=O)/C(C#N)=C/c1ncc[nH]1)c1ccc(OCOC)cc1 (stereo not drawn) [Compound 10, (E)-2-Cyano-3-(1H-imidazol-2-yl)-N-(1-(4-(methoxymethoxy)phenyl)butyl)acrylamide]
Western Targets: USP9X (USP9X): USP9X and DUB activity: no effect
Western Targets: DUB activity (DUB activity): USP9X and DUB activity: no effect

CCCC(NC(=O)/C(C#N)=C/c1ncc[nH]1)c1ccc(O)cc1 (stereo not drawn) [Compound 11, (E)-2-Cyano-N-(1-(4-hydroxyphenyl)butyl)-3-(1H-imidazol-2-yl)acrylamide]
Western Targets: USP9X (USP9X): USP9X and DUB activity: no effect
Western Targets: DUB activity (DUB activity): USP9X and DUB activity: no effect

CCCC(NC(=O)/C(C#N)=C/c1cccc(Br)n1)c1ccc(OCCN(CC)CC)cc1 (stereo not drawn) [Compound 33, (E)-3-(6-Bromopyridin-2-yl)-2-cyano-N-(1-(4-(2-(diethylamino)ethoxy)phenyl)butyl)acrylamide]
AMC Assay on USP9X-UCH Activity relative to WP1130 (USP9X-UCH): Same
log reduction at 5 µM (Murine norovirus (MNV)): 2 to 2.5
MTT Activity relative to WP1130 (Z138): Less sensitive

CCCC(NC(=O)/C(C#N)=C/c1cccc(F)n1)c1ccc(OCCN(CC)CC)cc1 (stereo not drawn) [Compound 34, (E)-2-Cyano-N-(1-(4-(2-(diethylamino)ethoxy)phenyl)butyl)-3-(6-fluoropyridin-2-yl)acrylamide]
AMC Assay on USP9X-UCH Activity relative to WP1130 (USP9X-UCH): No inhibition
log reduction at 5 µM (Murine norovirus (MNV)): 2
MTT Activity relative to WP1130 (Z138): Less sensitive

CCCC(NC(=O)/C(C#N)=C/c1cccc(Br)n1)c1ccc(OCCN(C)C)cc1 (stereo not drawn) [Compound 35, (E)-3-(6-Bromopyridin-2-yl)-2-cyano-N-(1-(4-(2-(dimethylamino)ethoxy)phenyl)butyl)acrylamide]
AMC Assay on USP9X-UCH Activity relative to WP1130 (USP9X-UCH): Inconclusive
log reduction at 5 µM (Murine norovirus (MNV)): 2
MTT Activity relative to WP1130 (Z138): Less sensitive

CCCC(NC(=O)/C(C#N)=C/c1cccc(F)n1)c1ccc(OCCN2CCCC2)cc1 (stereo not drawn) [Compound 36, (E)-2-Cyano-3-(6-fluoropyridin-2-yl)-N-(1-(4-(2-(pyrrolidin-1-yl)ethoxy)phenyl)butyl)acrylamide]
AMC Assay on USP9X-UCH Activity relative to WP1130 (USP9X-UCH): No inhibition
log reduction at 5 µM (Murine norovirus (MNV)): 2
MTT Activity relative to WP1130 (Z138): Less sensitive

CCCC(NC(=O)/C(C#N)=C/c1cccc(F)n1)c1ccc(OCCN2CCOCC2)cc1 (stereo not drawn) [Compound 37, (E)-2-Cyano-3-(6-fluoropyridin-2-yl)-N-(1-(4-(2-morpholinoethoxy)phenyl)butyl)acrylamide]
AMC Assay on USP9X-UCH Activity relative to WP1130 (USP9X-UCH): No inhibition
log reduction at 5 µM (Murine norovirus (MNV)): 1
MTT Activity relative to WP1130 (Z138): Less sensitive

CCCC(NC(=O)/C(C#N)=C/c1ncc[nH]1)c1ccc(OCCN(C)C)cc1 (stereo not drawn) [Compound 38, (E)-2-Cyano-N-(1-(4-(2-(dimethylamino)ethoxy)phenyl)butyl)-3-(1H-imidazol-2-yl)acrylamide]
AMC Assay on USP9X-UCH Activity relative to WP1130 (USP9X-UCH): Inconclusive
log reduction at 5 µM (Murine norovirus (MNV)): 0.5
MTT Activity relative to WP1130 (Z138): Less sensitive

CCC[C@H](NC(=O)/C(C#N)=C/c1cccc(F)n1)c1ccccc1 [Compound 40, (S,E)-2-Cyano-3-(6-fluoropyridin-2-yl)-N-(1-phenylbutyl)acrylamide]
AMC Assay on USP9X-UCH Activity relative to WP1130 (USP9X-UCH): Less sensitive
log reduction at 5 µM (Murine norovirus (MNV)): 2
MTT Activity relative to WP1130 (Z138): Less sensitive

CCC[C@H](NC(=O)/C(C#N)=C/c1cccc(Cl)n1)c1ccccc1 [Compound 41, (S,E)-2-Cyano-3-(6-chloropyridin-2-yl)-N-(1-phenylbutyl)acrylamide]
AMC Assay on USP9X-UCH Activity relative to WP1130 (USP9X-UCH): Inconclusive
log reduction at 5 µM (Murine norovirus (MNV)): 2
MTT Activity relative to WP1130 (Z138): Less sensitive

CCC[C@H](NC(=O)/C(C#N)=C/c1ncc[nH]1)c1ccccc1 [Compound 42, (S,E)-2-Cyano-3-(1H-imidazol-2-yl)-N-(1-phenylbutyl)acrylamide]
AMC Assay on USP9X-UCH Activity relative to WP1130 (USP9X-UCH): Less sensitive
log reduction at 5 µM (Murine norovirus (MNV)): 0.5
MTT Activity relative to WP1130 (Z138): Less sensitive

CCCC(NC(=O)/C(C#N)=C/c1cccc(Br)n1)c1ccc(OCCOCCOCCNC(=O)CCCC[C@@H]2SC[C@@H]3NC(=O)N[C@@H]32)cc1 (stereo partly drawn) [Compound 48, N-(2-(2-(2-(4-(1-((E)-3-(6-Bromopyridin-2-yl)-2-cyanoacrylamido)butyl)phenoxy)ethoxy)ethoxy)ethyl)-5-((3aS,4S,6aR)-2-oxohexahydro-1H-thieno[3,4-d]imidazol-4-yl)pentanamide]
log reduction at 5 µM (Murine norovirus (MNV)): 1.5

CCCC(NC(=O)/C=C/c1cccc(Br)n1)c1ccc(OCCOCCOCCNC(=O)CCCC[C@@H]2SC[C@@H]3NC(=O)N[C@@H]32)cc1 (stereo partly drawn) [Compound 51, N-(2-(2-(2-(4-(1-((E)-3-(6-Bromopyridin-2-yl)acrylamido)butyl)phenoxy)ethoxy)ethoxy)ethyl)-5-((3aS,4S,6aR)-2-oxohexahydro-1H-thieno[3,4-d]imidazol-4-yl)pentanamide]
log reduction at 5 µM (Murine norovirus (MNV)): 0

CCN1C(=O)C=CC1=O [NEM, N-ethylmaleimide, reference compound]
Ub-AMC hydrolyzing activity of lysates from treated cells (cellular DUB activity; CML cells, WP1130 1-8 hours): completely blocked substrate hydrolysis
suppression of cellular DUB activity (ubiquitin-AMC) (cellular DUB activity; Z138 cells, within 1 hr): 80%

Cc1cnc(Nc2ccc(N3CCN(C)CC3)cc2)nc1Nc1cccc(S(=O)(=O)NC(C)(C)C)c1 [TG101209, reference compound]
Usp9x activity (HA-UbVs labeling) (USP9X): none of the kinase inhibitors examined had significant Usp9x inhibitory activity

Cc1ccc(NC(=O)c2ccc(CN3CCN(C)CC3)cc2)cc1Nc1nccc(-c2cccnc2)n1 [imatinib, reference compound]
Usp9x activity (HA-UbVs labeling) (USP9X): none of the kinase inhibitors examined had significant Usp9x inhibitory activity
